Experimental findings from PubChem BioAssay AID330 (DTP/NCI, 2004) are described below.

The test system of the assay is P388 leukemia ip, CD2F1 mice, survival T/C. Kind of assay: NCI In Vivo Anticancer Drug Screen. Data for tumor model P388 Leukemia (intraperitoneal) in CD2F1 (CDF1) mice. The conditions noted are these: endpoint: median survival time, higher = longer survival. The method in brief: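 Mice carrying the transplanted tumor received test compound or vehicle. Survival was recorded in each group, and the value is the treated-group measurement divided by that of the vehicle-treated control group.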

The mark [1] stands for this setting: dose: 50.0 mg/kg/injection, schedule: Q01DX009 (ip), vehicle: saline.
Setting [2] is: dose: 100.0 mg/kg/injection, schedule: Q01DX009 (ip), vehicle: saline.
[3] abbreviates: dose: 60.0 mg/kg/injection, schedule: Q01DX005 (ip), vehicle: saline with Tween-80.
Where [4] appears, read: dose: 120.0 mg/kg/injection, schedule: Q01DX005 (ip), vehicle: saline with Tween-80.
[5] abbreviates: dose: 240.0 mg/kg/injection, schedule: Q01DX005 (ip), vehicle: saline with Tween-80.
Setting [6] is: dose: 200.0 mg/kg/injection, schedule: Q01DX009 (ip), vehicle: saline.
Where [7] appears, read: dose: 3.13 mg/kg/injection, schedule: Q01DX009 (ip), vehicle: water.
Setting [8] is: dose: 12.5 mg/kg/injection, schedule: Q01DX009 (ip), vehicle: water.

Structures are written as SMILES. Where “and” joins values, the source holds several entries; their conditions need not be identical. Equal entries are not always repeated. Inconclusive results and toxic doses are left out.

For the molecule `CN(C)CCC(=O)c1cccc([N+](=O)[O-])c1`, the T/C reads like this: (dose: 12.5 mg/kg/injection, schedule: Q01DX009 (ip), vehicle: saline) 104 % of control; (dose: 25.0 mg/kg/injection, schedule: Q01DX009 (ip), vehicle: saline) 101 % of control; under setting [1], 104 % of control and 109 % of control; under setting [2], 98 % of control.

Turning to `O=C1c2ccccc2-c2c(Br)cc(Br)c(NC(=O)C(Cl)Cl)c21`, the T/C is, setting by setting: under setting [3], 96 % of control; under setting [4], 96 % of control; under setting [5], 92 % of control.

On to `CC(C)(C)OC(=O)C(Cc1cnc2nc(N)nc(N)c2n1)C(=O)OC(C)(C)C`, for which the T/C (dose: 3.13 mg/kg/injection, schedule: Q01DX009 (ip), vehicle: distilled water + Tween-80) was 103 % of control; the T/C (dose: 6.25 mg/kg/injection, schedule: Q01DX009 (ip), vehicle: distilled water + Tween-80) is 98 % of control; the T/C (dose: 12.5 mg/kg/injection, schedule: Q01DX009 (ip), vehicle: distilled water + Tween-80) was 95 % of control; the T/C (dose: 25.0 mg/kg/injection, schedule: Q01DX009 (ip), vehicle: distilled water + Tween-80) was 95 % of control; the T/C (dose: 50.0 mg/kg/injection, schedule: Q01DX009 (ip), vehicle: distilled water + Tween-80) was 93 % of control.

Turning to `CCn1c2ccccc2n2c(=O)cc(-c3ccccc3)c(C#N)c12`, the T/C by setting is: under setting [3], 98 % of control; under setting [4], 106 % of control; under setting [5], 97 % of control.

Take `Nc1ccc2ccccc2c1-c1cccc2ccccc12`: the T/C is, setting by setting: (dose: 50.0 mg/kg/injection, schedule: Q01DX005 (ip), vehicle: saline with Tween-80) 96 % of control; (dose: 100.0 mg/kg/injection, schedule: Q01DX005 (ip), vehicle: saline with Tween-80) 96 % of control; (dose: 100.0 mg/kg/injection, schedule: Q04DX002 (ip), vehicle: saline with Tween-80) 102 % of control; (dose: 200.0 mg/kg/injection, schedule: Q01DX005 (ip), vehicle: saline with Tween-80) 102 % of control; (dose: 200.0 mg/kg/injection, schedule: Q04DX002 (ip), vehicle: saline with Tween-80) 102 % of control; (dose: 400.0 mg/kg/injection, schedule: Q04DX002 (ip), vehicle: saline with Tween-80) 92 % of control.

On to `O=C(Nc1cccc(Cl)c1Cl)Oc1ccc(Cl)cc1C(=O)c1ccccc1`, for which the T/C under setting [1] is 94 % of control, the T/C under setting [2] is 89 % of control and the T/C under setting [6] was 99 % of control.

Regarding `Cc1ccc2c(c1)C(=O)N(CC[P+](c1ccccc1)(c1ccccc1)c1ccccc1)C2=O`, the T/C runs as follows: (dose: 0.78 mg/kg/injection, schedule: Q01DX009 (ip), vehicle: water) 100 % of control and 113 % of control; (dose: 1.56 mg/kg/injection, schedule: Q01DX009 (ip), vehicle: water) 117 % of control and 120 % of control; under setting [7], 121 % of control; under setting [8], 118 % of control.

For the molecule `CC(=O)Oc1cc2c(c3ccccc13)OC(=O)CCCCCCCCCCC2=O`, the T/C (dose: 100.0 mg/kg/injection, schedule: Q04DX002 (ip), vehicle: Klucel (hydroxypropylcellulose) (HPC)) is 93 % of control; the T/C (dose: 200.0 mg/kg/injection, schedule: Q04DX002 (ip), vehicle: Klucel (hydroxypropylcellulose) (HPC)) was 118 % of control; the T/C (dose: 400.0 mg/kg/injection, schedule: Q04DX002 (ip), vehicle: Klucel (hydroxypropylcellulose) (HPC)) is 107 % of control.

Regarding `CCC(=O)Nc1ccc(N=NN(C)C)cc1`, the T/C runs as follows: (dose: 6.25 mg/kg/injection, schedule: Q04DX002 (ip), vehicle: Klucel (hydroxypropylcellulose) (HPC)) 97 % of control; (dose: 12.5 mg/kg/injection, schedule: Q04DX002 (ip), vehicle: Klucel (hydroxypropylcellulose) (HPC)) 106 % of control; (dose: 25.0 mg/kg/injection, schedule: Q04DX002 (ip), vehicle: Klucel (hydroxypropylcellulose) (HPC)) 100 % of control and 109 % of control.

Take `CC(=O)NC(=S)Nc1cccs1`: the T/C was 99 % of control (dose: 12.5 mg/kg/injection, schedule: Q01DX009 (ip), vehicle: saline with Tween-80); 103 % of control (dose: 25.0 mg/kg/injection, schedule: Q01DX009 (ip), vehicle: saline with Tween-80); 95 % of control (dose: 50.0 mg/kg/injection, schedule: Q01DX009 (ip), vehicle: saline with Tween-80).

In the case of `CC1=NC(=O)CC2=C1C(C)N(Cc1ccccc1)C2=O` (configuration not stated), the T/C was 98 % of control under setting [1], 94 % of control under setting [2] and 99 % of control under setting [6].

In the case of `Cc1nc(Nc2ccccc2)c2c(C)c(C)[nH]c2n1`, the T/C under setting [3] was 103 % of control, the T/C under setting [4] is 102 % of control and the T/C under setting [5] is 98 % of control.

As for `CCCCCCCOC(=O)c1cc2cc(C(CC)C(CC)c3ccc(O)cc3)ccc2oc1=O` (configuration not stated), the T/C reads like this: under setting [3], 105 % of control; under setting [4], 92 % of control; under setting [5], 95 % of control.

For `CN=S(=O)(c1ccccc1)C1(C)CC(C)=C(C)CS1=O` (configuration not stated), the T/C is 94 % of control (dose: 60.0 mg/kg/injection, schedule: Q01DX005 (ip), vehicle: saline); 97 % of control (dose: 120.0 mg/kg/injection, schedule: Q01DX005 (ip), vehicle: saline); 103 % of control (dose: 240.0 mg/kg/injection, schedule: Q01DX005 (ip), vehicle: saline).

Regarding `CC[C@]12CN3CCc4c([nH]c5ccccc45)[C@@](C(=O)OC)(c4cc5c(cc4OC)N(C)[C@H]4[C@@](O)(C(=O)OC)[C@H](OC(C)=O)[C@]6(CC)C=CCN7CC[C@]54[C@@H]76)CC(C3)[C@H]1O2` (some centres not stated), the T/C was 101 % of control (dose: 0.05 mg/kg/injection, schedule: Q01DX009 (ip), vehicle: saline); 104 % of control (dose: 0.1 mg/kg/injection, schedule: Q01DX009 (ip), vehicle: saline); 104 % of control (dose: 0.2 mg/kg/injection, schedule: Q01DX009 (ip), vehicle: saline); 103 % of control (dose: 0.4 mg/kg/injection, schedule: Q01DX009 (ip), vehicle: saline); 104 % of control (dose: 0.5 mg/kg/injection, schedule: Q01DX001 (ip), vehicle: water); 114 % of control (dose: 0.75 mg/kg/injection, schedule: Q01DX009 (ip), vehicle: saline). Further, the T/C is 107 % of control (dose: 0.8 mg/kg/injection, schedule: Q01DX009 (ip), vehicle: saline); 95 % of control (dose: 1.0 mg/kg/injection, schedule: Q01DX001 (ip), vehicle: water); 113 % of control (dose: 1.6 mg/kg/injection, schedule: Q01DX009 (ip), vehicle: saline); 108 % of control (dose: 2.0 mg/kg/injection, schedule: Q01DX001 (ip), vehicle: water); 117 % of control (dose: 3.0 mg/kg/injection, schedule: Q01DX009 (ip), vehicle: saline); 110 % of control (dose: 3.2 mg/kg/injection, schedule: Q01DX009 (ip), vehicle: saline). Further, the T/C is 116 % of control (dose: 4.0 mg/kg/injection, schedule: Q01DX001 (ip), vehicle: water); 173 % of control (dose: 6.0 mg/kg/injection, schedule: Q01DX009 (ip), vehicle: saline sonified); 156 % of control and 160 % of control (dose: 6.0 mg/kg/injection, schedule: Q01DX009 (ip), vehicle: saline); 120 % of control (dose: 6.4 mg/kg/injection, schedule: Q01DX009 (ip), vehicle: saline); 122 % of control (dose: 8.0 mg/kg/injection, schedule: Q01DX001 (ip), vehicle: water); 121 % of control (dose: 12.0 mg/kg/injection, schedule: Q01DX009 (ip), vehicle: saline sonified). Also, the T/C reads like this: (dose: 12.0 mg/kg/injection, schedule: Q01DX009 (ip), vehicle: saline) 176 % of control and 220 % of control; (dose: 24.0 mg/kg/injection, schedule: Q01DX009 (ip), vehicle: saline) 117 % of control.

Regarding `COc1ccc(CCNC(C)Cc2ccc(OC)c(OC)c2)cc1OC` (configuration not stated), the T/C runs as follows: under setting [7], 94 % of control; (dose: 6.25 mg/kg/injection, schedule: Q01DX009 (ip), vehicle: water) 92 % of control; under setting [8], 96 % of control; (dose: 25.0 mg/kg/injection, schedule: Q01DX009 (ip), vehicle: water) 100 % of control; (dose: 50.0 mg/kg/injection, schedule: Q01DX009 (ip), vehicle: water) 99 % of control.

Turning to `CCCCCCCCCCCCCCCCOc1ccc(S(=O)(=O)c2ccccc2)cc1[N+](=O)[O-]`, the T/C is, setting by setting: (dose: 25.0 mg/kg/injection, schedule: Q04DX003 (ip), vehicle: saline sonified) 100 % of control; (dose: 50.0 mg/kg/injection, schedule: Q04DX003 (ip), vehicle: saline sonified) 100 % of control; (dose: 100.0 mg/kg/injection, schedule: Q04DX003 (ip), vehicle: saline sonified) 90 % of control.
